From patent US10035766B2, “Compositions for preventing and/or treating lysosomal storage disorders” (Amicus Therapeutics, Inc., priority 2009, dated 2018)
Structures can show the parent of a compound that is named as a salt. Where two headings read alike, the source gives them in different places.

What was measured:
[1] = GCase enhancement in brain and spleen after oral dosing over 2 weeks; type: in vivo, mice; conditions: male, C57BL/6, mouse, brain homogenate as diluted in the GCase assay, po, brain, read-out: Compound concentration in GCase assay
Protocol: (§1) The ability of orally administered test compounds ((3R,4R,5S)-5-(difluoromethyl)piperidine-3,4-diol, (3R,4R,5S)-5-(1-fluoroethyl)piperidine-3,4-diol, (3R,4R,5S)-5-((R)-1-fluoropropyl)piperidine-3,4-diol hydrochloride, or (3R,4R,5S)-5-benzylpiperidine-3,4-diol) to elevate GCase levels was assessed in mice. For this purpose, 8-week old wild-type male mice (C57BL/6) were administered a single p.o. (gavage) dose of a compound of the present invention (i.e., (3R,4R,5S)-5-(difluoromethyl)piperidine-3,4-diol, (3R,4R,5S)-5-(1-fluoroethyl)piperidine-3,4-diol, (3R,4R,5S)-5-((R)-1-fluoropropyl)piperidine-3,4-diol hydrochloride, or (3R,4R,5S)-5-benzylpiperidine-3,4-diol). The dosing solutions were prepared in water. Compounds were administered over 2 weeks as follows: week 1, Mon-Fri (On), Sat-Sun (Off); week 2, Mon-Thu (On); necropsy on Friday. Thus, a total of 9 doses (dosing solutions prepared fresh every day) were given to each mouse, with a 24-hour washout between the last dose and necropsy.
(§2) Plasma was collected by spinning blood at 2700 g for 10 minutes at 4° C. Liver, spleen, lung, and brain tissues were removed, washed in cold PBS, blotted dry, flash frozen on dry ice, and stored at −80° C. until analysis. GCase levels were measured by homogenizing approximately 50 mg tissue in 500 μL McIlvane (MI) buffer (100 mM sodium citrate, 200 mM sodium phosphate dibasic, 0.25% sodium taurocholate, and 0.1% Triton X-100, pH 5.2) at pH 5.2 for 3-5 seconds on ice with a micro homogenizer. Homogenates were then incubated at room temperature without and with 2.5 mM conduritol-B-epoxide (CBE) for 30 min. Finally, 3.7 mM 4-methylumbeliferryl-β-glucoside (4-MUG) substrate was added and incubated at 37° C. for 60 min. […] Fluorescence was measured on a plate reader for 1 sec/well using 355 nm excitation and 460 nm emission. Total protein was determined in lysates using the MicroBCA kit according to the manufacturer's instructions. A 4-methylumbelliferone (4-MU) standard curve ranging from 1.0 nM to 50 μM was run in parallel for conversion of raw fluorescence data to absolute GCase activity (in the presence and absence of CBE) and expressed as nanomoles of 4-MU released per milligram of protein per hour (nmol/mg protein/hr). GCase levels and protein levels were calculated using Microsoft Excel (Redmond, Wash.) and GraphPad Prism version 4.02.

lysosomal GCase = target: T1, lysosomal GCase (Homo sapiens, UniProt P04062); test: In situ lysosomal GCase inhibition and washout in fibroblasts from a normal subject (PFBFDβGlu substrate); type: cell-based; conditions: for in situ washout: after 16-24 hours at IC90, single exponential fit of activity recovery over 8 hours
T1 construct: fibroblasts established from a normal subject; endogenous in cells; host or cells: fibroblasts established from a normal subject
T1 sequence (P04062 40-536): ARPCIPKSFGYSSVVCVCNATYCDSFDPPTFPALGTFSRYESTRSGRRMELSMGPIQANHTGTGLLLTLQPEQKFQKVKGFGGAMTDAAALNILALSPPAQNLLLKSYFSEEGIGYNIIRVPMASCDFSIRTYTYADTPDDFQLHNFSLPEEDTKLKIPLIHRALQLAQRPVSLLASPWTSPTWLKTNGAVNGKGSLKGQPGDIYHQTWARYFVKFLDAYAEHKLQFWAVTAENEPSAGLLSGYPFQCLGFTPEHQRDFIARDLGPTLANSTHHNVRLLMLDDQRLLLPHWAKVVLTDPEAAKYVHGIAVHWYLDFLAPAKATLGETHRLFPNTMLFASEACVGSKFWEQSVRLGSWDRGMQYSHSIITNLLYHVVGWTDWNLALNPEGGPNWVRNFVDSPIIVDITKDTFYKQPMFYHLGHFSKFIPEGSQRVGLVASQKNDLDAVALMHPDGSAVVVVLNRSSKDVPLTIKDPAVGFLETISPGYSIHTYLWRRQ
Protocol: The effect of the novel compounds of the present invention on lysosomal GCase activity was assayed in situ using fibroblasts established from a normal subject. Cells seeded in 48-well plates were incubated with the indicated concentrations of compound for 16-24 hours. For the dose-response assays, cells were incubated with the in situ substrate 5-(pentafluorobenzoylamino)fluorescein di-β-D-glucopyranoside (PFBFDβGlu) for 1 hour and subsequently lysed to determine the extent of substrate hydrolysis in the presence of compound. […] Inhibition was determined as the ratio of activity in the presence of compound to that in the absence of compound. […] Cells were washed extensively and incubated in drug-free medium to allow net compound efflux from cells. Cells were then tested for lysosomal GCase activity at 2 hour intervals over a total period of 8 hours following compound removal. The increase in activity over time was fitted with a single exponential function to determine the compound's washout time.

GCase [2] = target: T2, GCase (Mus musculus, UniProt P17439); test: GCase enhancement in brain and spleen after oral dosing over 2 weeks; type: in vivo, mice; parameters: from tissue; host or cells: brain and spleen of wild-type C57BL/6 mice; conditions: for GCase increase (fold): 9 doses, 24-hour washout; for GCase enhancement in brain and spleen: mice, p.o.
T2 sequence (P17439 20-515): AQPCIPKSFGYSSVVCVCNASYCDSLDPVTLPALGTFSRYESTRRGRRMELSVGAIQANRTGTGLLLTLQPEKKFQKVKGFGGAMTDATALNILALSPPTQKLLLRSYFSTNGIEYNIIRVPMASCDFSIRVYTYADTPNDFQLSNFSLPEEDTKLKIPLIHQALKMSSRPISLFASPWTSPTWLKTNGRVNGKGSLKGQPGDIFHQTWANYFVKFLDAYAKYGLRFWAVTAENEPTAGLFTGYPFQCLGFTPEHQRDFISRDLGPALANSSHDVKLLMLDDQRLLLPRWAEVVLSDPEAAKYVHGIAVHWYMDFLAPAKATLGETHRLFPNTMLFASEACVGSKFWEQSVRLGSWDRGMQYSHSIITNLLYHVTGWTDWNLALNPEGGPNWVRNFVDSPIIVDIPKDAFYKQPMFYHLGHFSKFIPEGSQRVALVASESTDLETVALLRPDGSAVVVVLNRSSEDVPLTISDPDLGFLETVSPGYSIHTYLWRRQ
Protocol: as §1, §2

GCase [3] = target: T3, GCase (Homo sapiens, UniProt P04062); test: GCase activity enhancement (EC50, Emax) of Table 2B; type: cell-based; conditions: for GCase activity enhancement compared to reference compound IFG-tartrate: same maximum level as IFG-tartrate at much lower concentration
T3 sequence (P04062 40-536): T1 sequence (P04062 40-536)

[4] = brain, 10 mg/kg FBE p.o., (1) BLQ <[…], (2) BLQ <2.2 nmol/kg
[5] = spleen, 10 mg/kg FBE p.o., (1) BLQ <6.8 nmol/kg, (2) BLQ <7.9 nmol/kg
[6] = spleen, 10 mg/kg FBE p.o., in µM
[7] = spleen, 100 mg/kg FBE p.o., in µM

Compound | concentration at 24 h ([1]; 10 mg/kg, 10 mg/kg FBE p.o.) | in situ washout from the lysosomal compartment compared to IFG-tartrate (lysosomal GCase) | inhibition of GCase activity (lysosomal GCase) | GCase increase (fold) (GCase [2]; brain, 10 mg/kg FBE p.o.) | GCase enhancement in brain and spleen (GCase [2]) | Compound concentration in GCase assay (GCase [2]; spleen, 10 mg/kg FBE p.o.) | GCase activity enhancement compared to reference compound IFG-tartrate (GCase [3]) | concentration at 24 h ([1]; 100 mg/kg, 100 mg/kg FBE p.o.) | Compound concentration in GCase assay (μM) (GCase [2]; brain, 10 mg/kg FBE p.o.) | Compound concentration in tissue 2.2 nmol/kg (GCase [2]; [4]) | Compound concentration in tissue 2.2 nmol/kg (GCase [2]; brain, 100 mg/kg FBE p.o.) | GCase increase (fold) (GCase [2]; brain, 100 mg/kg FBE p.o.) | GCase increase (fold) (GCase [2]; spleen, 10 mg/kg FBE p.o.) | Compound concentration in tissue (GCase [2]; [5]) | Compound concentration in GCase assay (GCase [2]; [6]) | Compound concentration in tissue (GCase [2]; spleen, 100 mg/kg FBE p.o.) | GCase increase (fold) (GCase [2]; spleen, 100 mg/kg FBE p.o.) | Compound concentration in GCase assay (GCase [2]; [7]) | Emax (GCase [3]) | in situ washout (lysosomal GCase)
CC(F)[C@H]1CNC[C@@H](O)[C@@H]1O (single isomer, unassigned) | 0.2 nM | considerably faster than reference compound IFG-tartrate | inhibited GCase activity | 1.5 fold | significant GCase enhancement in brain and spleen | BLQ | concentration-dependent increase in GCase activity | – | – | – | – | – | – | – | – | – | – | – | – | –
CC[C@@H](F)[C@H]1CNC[C@@H](O)[C@@H]1O.Cl [(3R,4R,5S)-5-((R)-1-fluoropropyl)-piperidine-3,4-diol hydrochloride] | – | – | inhibited GCase activity | 0.9 fold | – | – | concentration-dependent increase in GCase activity | 0.1 nM | BLQ | BLQ(2) | 38 nmol/kg | 1.1 fold | 0.7 fold | 21 nmol/kg | 0.0001 | 60 nmol/kg | 0.7 fold | 0.0002 | 84 ± 4.1% | –
O[C@@H]1[C@@H](Cc2ccccc2)CNC[C@H]1O [(3R,4R,5S)-5-benzyl-piperidine-3,4-diol] | – | considerably faster than reference compound IFG-tartrate | inhibited GCase activity | 1.2 fold | significant GCase enhancement in brain and spleen | – | concentration-dependent increase in GCase activity | – | – | – | – | 1.4 fold | 1.0 fold | – | – | – | 1.2 fold | – | 98 ± 4.5% | 1.2 ± 0.13 h
O[C@H]1[C@H](O)CNC[C@@H]1C(F)F [Compound 6, (3R,4R,5S)-5-(Difluoromethyl)piperdine 3,4-diol Hydrochloride] | 0.2 nM | considerably faster than reference compound IFG-tartrate | inhibited GCase activity | – | significant GCase enhancement in brain and spleen | – | concentration-dependent increase in GCase activity | 1 nM | – | 55 nmol/kg | 301 nmol/kg | – | – | 100 nmol/kg | 0.0003 | 435 nmol/kg | – | 0.0015 | 106 ± 8.7% | 2.1 ± 0.30 h
